Reference: patent publication US6855710B2, “Substituted indolines with an inhibitory effect on various kinases and complexes of CDKs” (Boehringer Ingelheim Pharma KG, priority 1998, dated 2005)

First: Cc1ccc(S(=O)(=O)N(CCN(C)C)c2ccc(N/C(=C3\C(=O)Nc4ccccc43)c3ccccc3)cc2)cc1 [Example 454, (Z)-3-[1-(4-(N-(2-dimethylaminoethyl)-N-(p-tolylsulphonyl)-amino)-phenylamino)-1-phenyl-methylidene]-2-indolinone]
Second: COCC(=O)N(CCN(C)C)c1ccc(N/C(=C2\C(=O)Nc3ccccc32)c2ccccc2)cc1 [Example 451, (Z)-3-[1-(4-(N-(2-dimethylaminoethyl)-N-methoxymethylcarbonyl-amino)-phenylamino)-1-phenyl-methylidene]-2-indolinone]
The melting point of the first is lower: 213 to 215 °C for the first, 246 to 249 °C for the second.

First: CCS(=O)(=O)N(CC(=O)NCCN(C)C)c1ccc(N/C(=C2\C(=O)Nc3ccccc32)c2ccccc2)cc1 [Example 301, (Z)-3-{1-[4-(N-(2-dimethylamino-ethylaminocarbonylmethyl)-N-ethylsulphonyl-amino)-phenylamino]-1-phenyl-methylidene}-2-indolinone]
Second: CN(C)CCS(=O)(=O)Nc1ccc(N/C(=C2\C(=O)Nc3ccccc32)c2ccccc2)cc1 [Example 379, (Z)-3-{1-[4-(2-dimethylamino-ethylsulphonylamino)-phenylamino]-1-phenyl-methylidene}-2-indolinone]
The melting point of the first is lower: 203 °C for the first, 214 to 216 °C for the second.

Compared with `CC(=O)Nc1cccc(N/C(=C2\C(=O)Nc3ccccc32)c2ccccc2)c1` [Example 32, (Z)-3-[1-(3-acetylamino-phenylamino)-1-phenyl-methylidene]-2-indolinone], `NC(=O)c1cccc(N/C(=C2\C(=O)Nc3ccccc32)c2ccccc2)c1` [Example 10, (Z)-3-{1-[3-(aminocarbonyl)phenylamino]-1-phenyl-methylidene}-2-indolinone] is lower in melting point: 285 to 288 °C for the first, 258 to 263 °C for the second.

First: Cl.NCC(=O)NCc1ccc(N/C(=C2\C(=O)Nc3ccc([N+](=O)[O-])cc32)c2ccccc2)cc1
Second: CC(=O)NCc1ccc(N/C(=C2\C(=O)Nc3ccc([N+](=O)[O-])cc32)c2ccccc2)cc1 [Example 143, (Z)-3-[1-(4-acetylaminomethyl-phenylamino)-1-phenyl-methylidene]-5-nitro-2-indolinone]
The melting point of the first is lower: 225 to 228 °C for the first, 345 to 346 °C for the second.

First: CS(=O)(=O)N(CC(N)=O)c1cccc(N/C(=C2\C(=O)Nc3ccccc32)c2ccccc2)c1 [Example 319, (Z)-3-{1-[3-(N-aminocarbonylmethyl-N-methylsulphonyl-amino)-phenylamino]-1-phenyl-methylidene}-2-indolinone]
Second: CN(c1cccc(N/C(=C2\C(=O)Nc3ccccc32)c2ccccc2)c1)S(C)(=O)=O [Example 184, (Z)-3-{1-[3-(N-methyl-N-methylsulphonyl-amino)-phenylamino]-1-phenyl-methylidene}-2-indolinone]
The melting point of the first is lower: 227 to 230 °C for the first, 261 °C for the second.

First: CS(=O)(=O)Nc1ccc(N/C(=C2\C(=O)Nc3ccc([N+](=O)[O-])cc32)c2ccccc2)cc1 [Example 196, (Z)-3-[(4-methylsulphonylamino-phenylamino)-1-phenyl-methylidene]-5-nitro-2-indolinone]
Second: C[C@H](N)c1ccc(N/C(=C2\C(=O)Nc3ccc([N+](=O)[O-])cc32)c2ccccc2)cc1.Cl
The melting point of the first is higher: 344 to 346 °C for the first, 230 to 235 °C for the second.

First: CN(C)C(=O)c1cccc(N/C(=C2\C(=O)Nc3ccccc32)c2ccccc2)c1 [Example 22, (Z)-3-[1-(3-dimethylaminocarbonyl-phenylamino)-1-phenyl-methylidene]-2-indolinone]
Second: CNC(=O)c1cccc(N/C(=C2\C(=O)Nc3ccccc32)c2ccccc2)c1 [Example 21, (Z)-3-[1-(3-methylaminocarbonyl-phenylamino)-1-phenyl-methylidene]-2-indolinone]
The melting point of the first is higher: 261 to 263 °C for the first, 250 to 252 °C for the second.

First: CNC(=O)CN(C(=O)c1ccccc1)c1ccc(N/C(=C2\C(=O)Nc3ccccc32)c2ccccc2)cc1 [Example 362, (Z)-3-{1-[4-(N-methylaminocarbonylmethyl-N-benzoyl-amino)-phenylamino]-1-phenyl-methylidene}-2-indolinone]
Second: CC(=O)N(CC(=O)N(C)C)c1ccc(N/C(=C2\C(=O)Nc3ccccc32)c2ccccc2)cc1 [Example 355, (Z)-3-{1-[4-(N-dimethylaminocarbonylmethyl-N-acetyl-amino)-phenylamino]-1-phenyl-methylidene}-2-indolinone]
The melting point of the first is lower: 260 to 262 °C for the first, 264 to 268 °C for the second.

Compared with `CN(CCN1CCOCC1)CC(=O)N(C)c1ccc(N/C(=C2\C(=O)Nc3ccccc32)c2ccccc2)cc1` [Example 374, (Z)-3-{1-[4-(N—(N-(2-morpholinoethyl)-N-methyl-aminomethyl-carbonyl)-N-methylamino)-phenylamino]-1-phenyl-methylidene}-2-indolinone], `O=C(CN1CCOCC1)Nc1ccc(N/C(=C2\C(=O)Nc3ccccc32)c2ccccc2)cc1` [Example 43, (Z)-3-[1-(4-morpholinomethylcarbonylamino-phenylamino)-1-phenyl-methylidene]-2-indolinone] is higher in melting point: 116 to 118 °C for the first, 246 to 248 °C for the second.

First: CN(C(=O)CN1C(=O)c2ccccc2C1=O)c1ccc(N/C(=C2\C(=O)Nc3ccccc32)c2ccccc2)cc1 [Example 365, (Z)-3-{1-[4-(N-phthalimidomethylcarbonyl-N-methyl-amino)-phenylamino]-1-phenyl-methylidene}-2-indolinone]
Second: Cl.NCC(=O)NCc1ccc(N/C(=C2\C(=O)Nc3ccccc32)c2ccccc2)cc1
The melting point of the first is higher: 278 to 280 °C for the first, 190 to 195 °C for the second.

Compared with `CNC(=N)c1cccc(N/C(=C2\C(=O)Nc3ccccc32)c2ccccc2)c1` [Example 65, (Z)-3-{1-[3-(N-methylcarbamimidoyl)-phenylamino]-1-phenyl-methylidene}-2-indolinone], `COc1cccc(N/C(=C2\C(=O)Nc3ccccc32)c2ccccc2)c1` [Example 3, (Z)-3-[1-(3-methoxy-phenylamino)-1-phenyl-methylidene]-2-indolinone] is lower in melting point: 248 to 250 °C for the first, 218 to 221 °C for the second.

Compared with `CCOC(=O)CN(C)S(=O)(=O)c1ccc(N/C(=C2\C(=O)Nc3ccc([N+](=O)[O-])cc32)c2ccccc2)cc1` [Example 413, (Z)-3-{1-[4-(N-ethoxycarbonylmethyl-N-methyl-aminosulphonyl)-phenylamino]-1-phenyl-methylidene}-5-nitro-2-indolinone], `CC(=O)NCCc1ccc(N/C(=C2\C(=O)Nc3ccc([N+](=O)[O-])cc32)c2ccccc2)cc1` [Example 129, (Z)-3-{1-[4-(2-acetylamino-ethyl)-phenylamino]-1-phenyl-methylidene}-5-nitro-2-indolinone] is higher in melting point: 206 to 207 °C for the first, 306 to 307 °C for the second.

First: C[C@@H](N)c1ccc(N/C(=C2\C(=O)Nc3ccc([N+](=O)[O-])cc32)c2ccccc2)cc1.Cl
Second: CN(Cc1ccc(N/C(=C2\C(=O)Nc3ccc([N+](=O)[O-])cc32)c2ccccc2)cc1)C1CC1 [Example 275, (Z)-3-{1-[4-((N-cyclopropyl-N-methyl-amino)-methyl)-phenylamino]-1-phenyl-methylidene}-5-nitro-2-indolinone]
The melting point of the first is higher: 230 to 235 °C for the first, 216 to 217 °C for the second.

First: O=C1Nc2ccc([N+](=O)[O-])cc2/C1=C(/Nc1ccc(CN2CCC(Cc3ccccc3)CC2)cc1)c1ccccc1 [Example 172, (Z)-3-{1-[4-(4-phenylmethyl-piperidinomethyl)-phenylamino]-1-phenyl-methylidene}-5-nitro-2-indolinone]
Second: CCC1CCN(Cc2ccc(N/C(=C3\C(=O)Nc4ccc([N+](=O)[O-])cc43)c3ccccc3)cc2)CC1 [Example 175, (Z)-3-{1-[4-(4-ethylpiperidinomethyl)-phenylamino]-1-phenyl-methylidene}-5-nitro-2-indolinone]
The melting point of the first is higher: 252 °C for the first, 225 to 227 °C for the second.

Compared with `COc1ccccc1N/C(=C1\C(=O)Nc2ccccc21)c1ccccc1` [Example 4, (Z)-3-[1-(2-methoxy-phenylamino)-1-phenyl-methylidene]-2-indolinone], `COC(=O)c1ccccc1N/C(=C1\C(=O)Nc2ccccc21)c1ccccc1` [Example 7, (Z)-3-[1-(2-methoxycarbonyl-phenylamino)-1-phenyl-methylidene]-2-indolinone] is higher in melting point: 237 °C for the first, 241 to 244 °C for the second.

Compared with `O=C1Nc2ccc([N+](=O)[O-])cc2/C1=C(/Nc1ccc(CN2CCCCC2)cc1)c1ccc(Cn2ccnc2)cc1` [Example 439, (Z)-3-{1-[4-piperidinomethyl-phenylamino]-1-[4-(imidazol-1-yl-methyl)-phenyl]-methylidene}-5-nitro-2-indolinone], `O=C(O)CCNCc1ccc(N/C(=C2\C(=O)Nc3ccc([N+](=O)[O-])cc32)c2ccccc2)cc1` [Example 242, (Z)-3-{1-[4-(2-carboxy-ethylaminomethyl)-phenylamino]-1-phenyl-methylidene}-5-nitro-2-indolinone] is lower in melting point: 226 to 228 °C for the first, 220 to 222 °C for the second.

Compared with `CC(=O)NCc1cccc(N/C(=C2\C(=O)Nc3ccc([N+](=O)[O-])cc32)c2ccccc2)c1` [Example 138, (Z)-3-[1-(3-acetylaminomethyl-phenylamino)-1-phenyl-methylidene]-5-nitro-2-indolinone], `CNC(=O)CN(c1cccc(N/C(=C2\C(=O)Nc3ccccc32)c2ccc(CNC(C)=O)cc2)c1)S(C)(=O)=O` [Example 419, (Z)-3-{1-[3-(N-methylaminocarbonylmethyl-N-methylsulphonyl-amino)-phenylamino]-1-(4-acetylaminomethyl-phenyl)-methylidene}-2-indolinone] is higher in melting point: 238 °C for the first, 242 °C for the second.

Work on `CCN(CC)CC(=O)Nc1ccc(N/C(=C2\C(=O)Nc3ccccc32)c2ccccc2)cc1.Cl` yielded a melting point of 267 to 269 °C.

In the case of `O=C1Nc2ccc([N+](=O)[O-])cc2/C1=C(/Nc1ccc(CCN2CC=CCC2)cc1)c1ccccc1` [Example 269, (Z)-3-{1-[4-(2-(3,6-Dihydro-2H-pyridin-1-yl)-ethyl)-phenylamino]-1-phenyl-methylidene}-5-nitro-2-indolinone], the melting point is reported as 249 to 254 °C (dec.).
In the case of `CC(=O)NC(c1ccc(N/C(=C2\C(=O)Nc3ccc([N+](=O)[O-])cc32)c2ccccc2)cc1)N(C)C(=O)OC(C)(C)C` (stereo not shown) [Example 145, (Z)-3-{1-[4-((N-tert.butoxycarbonyl-N-methyl-amino)-methylcarbonylaminomethyl)-phenylamino]-1-phenyl-methylidene}-5-nitro-2-indolinone], the melting point is reported as 225 to 227 °C (dec.).
